These results are taken from EPA's ToxValDB 9.5 (doi:10.2903/j.efsa.2014.3881).

The structures appear in SMILES notation.

For one series, the system named is Anas platyrhynchos. The settings on record: reproductive.
The subject of a further series is Apis mellifera. The settings on record: acute, mortality.
The test system of a further series is Canidae. The settings on record: chronic; duration: 1 years; oral; Dog Other; body weight.
A further series concerns Colinus virginianus. The settings on record: acute; oral; diet; mortality.
The subject of another series is Coturnix japonica. The settings on record: acute; oral; mortality.
Another series relates to Daphnia magna. The settings on record: chronic/long-term; duration: 21 days; reproduction.
In the next series the test system is Mus musculus. The settings on record: chronic; duration: 18 months; body weight.

Usually NOAEL stands for the highest dose or exposure tested at which no adverse effect was seen. Regarding `COC(=O)c1ccc(C(F)(F)F)nc1S(=O)(=O)[N-]C(=O)Nc1nc(OC)cc(OC)n1.[Na+]` [Flupyrsulfuron-methyl sodium], the NOEL with Anas platyrhynchos stood at 26 mg/kg-day. In addition, the LD50 is above 250 µg/piece in the series with Apis mellifera (dermal); 119 µg/piece with Apis mellifera (oral, unspecified); above 1610 mg/kg-day in the series with Colinus virginianus; above 2250 mg/kg-day with Coturnix japonica; above 2500 mg/kg-day in the series with Rattus norvegicus (acute, mortality). In addition, the NOAEL in the series with Canidae worked out at 13.6 mg/kg-day; in the series on Mus musculus, 3.51 mg/kg-day; in the series on Rattus norvegicus (developmental, development), 20 mg/kg-day. Also, the NOEC with Daphnia magna was 16 mg/L; in the series on Oncorhynchus mykiss (chronic/long-term, duration: 90 days, growth), 9.2 mg/L; with Tagia sp. (chronic/long-term, duration: 8 weeks) it was 0.065 mg/kg. In addition, the LC50 with Oncorhynchus mykiss (acute, duration: 96 hours, mortality) was 470 µg/mL; in the series with Tagia sp. (acute, duration: 14 days, mortality), above 1000 mg/kg.
